According to US20250241878A1, “TYROSINE AND RESVERATROL DERIVATIVES AS NOVEL MODULATORS OF CELLULAR SERINE ADP-RIBOSYLATION” (UNIVERSITY OF SOUTH CAROLINA, priority 2022, published 2025):

Assays:
[1] = system: association of raptor with Rab7a; assay: Raptor / Rab7a immunoprecipitation; type: cell-based, rat
From the text: FIG. 19C presents cis-RSV-mediated recruitment of raptor to Rab7a-coated late endosomes.

monosomes = assay: Monosome formation in cortical neurons; type: cell-based, rat; settings: compound alone
OGG1 = OGG1 levels Western blot in cortical neurons; type: cell-based, rat
Method: FIG. 4C presents primary cortical neurons treated with Tyr ([…]) for 8 hr, and OGG1 was detected by Western Blot analysis using anti-OGG1 antibody.
(§1) Cultured neurons (DIV 9-10) were washed once with cold 1×PBS and lysed in cell lysis buffer (20 mM Tris-HCl (pH 7.5), 150 mM NaCl, 1 mM Na2EDTA, 1 mM EGTA, 1% Triton™, 2.5 mM sodium pyrophosphate, 1 mM beta-glycerophosphate, 1 mM Na3VO4, 1 μg/ml leupeptin supplemented with protease inhibitor). The lysates were centrifuged at 10,000 RPM for 15 mins at 4° C. to separate the chromatin-bound and soluble fractions. Lysates were quantified using Bio-Rad™ Protein Assay and equal amounts of protein were loaded onto a 4 to 12% gradient gel (Invitrogen™ NuPAGE™). Protein was transferred from the gel to 0.2 μm NC membranes at 25 V for 10 mins using transfer stacks (iBlot™ 2-Invitrogen™) and blocked with 5% non-fat milk in TBST (10 mM Tris-HCl pH 8.0, 150 mM NaCl, 0.01% Tween-20) for 1 hr before application of primary antibodies. Primary and secondary antibodies were incubated overnight at 4° C. and for 1 hr at room temperature, respectively. Immobilon® ECL Ultra Western HRP Substrate (WBULS0500, Millipore™) and a luminescent image analyzer (ChemiDoc™ Imaging System, Bio-Rad™) were used to detect proteins. Quantification of western blots was done using ImageJ (Version 1.53c).

rat cortical neurons = assay: MTT cell viability assay; set-up: effect on neurotoxicity induced by etoposide (ETO) / effect on neurotoxicity induced by oxidative stress (H2O2) / effect on neurotoxicity induced by mitochondrial inhibition (MPP+) / neurotoxicity (viability): dose or concentration left out as unconfirmed; settings: for effect on D-Tyr mediated neurotoxicity: combination with D-Tyr
Method: Rat cortical neurons (DIV9-11) were exposed to different treatments (NMDA, ETO, H2O2, MPP+) after seeding 20,000 cells/well in 96-well plates. Cell viability was then assessed at 48 hr after the initial exposure to NMDA. 3-[4,5-dimethylthiazole-2-yl]-2,5-diphenyltetrazolium bromide (MTT) assays were used to assess change in cell viability. […] Cultured rat cortical neurons were incubated with MTT (0.5 mg/mL). In the MTT assay, after 2 hr incubation, the insoluble purple product formazan resulting from the reduction of MTT by NAD (P) H-dependent oxidoreductases present in cells with viable mitochondria was solubilized in dimethyl sulfoxide at room temperature, under agitation, and protected from light. The percentage of MTT reduced as measured by the difference between the absorbances at 570 nm read in a spectrophotometer (SpectraMax® 190R Molecular Devices, UK).

AcK56-H3 = settings: humans, 500 mg/day dosing; cited from earlier work
PARP1 = assay: Auto-PARylation of PARP1 immunoblot; type: cell-based, rat
global protein synthesis = assay: Puromycin incorporation assay; type: cell-based, rat; settings: compound alone
Method: as §1

cortical neurons = assay: Neurite degeneration (MAP2 staining); type: cell-based, rat; settings: agent alone
Method: The neurite degeneration index was calculated. Samples were imaged using ImageXpress® Micro 4 at a magnification of 10× to capture the entire field of interest. The samples analyzed for neurite degeneration were stained using the standard immunofluorescence procedure with MAP2 (Alexa Fluor® 647) for neurites and DAPI staining for the nucleus. Neurite degeneration was quantified using 5-6 regions of interest of equal sizes from each treatment condition. The analysis of neurite degeneration was done using ImageJ. The fluorescent images for MAP2 staining were binarized, so that pixel intensity of regions corresponding to neurite staining was converted to black, and all other regions were converted to white. Healthy intact neurites show a continuous tract, whereas degenerated axons have a particulate structure due to fragmentation or beading. To detect degenerated neurites, the particle analyzer module of ImageJ was used. The percentage of the area of the small fragments or particles (size=3-10 μm^2) to the intact neurites (size >25 μm^2) with information derived from the binary images was calculated. A degeneration index (DI) was calculated as the fragmented neurite area ratio over the intact neurite area.

[2] = higher concentrations of trans-RSV (≥25 mM)

Structure (SMILES) | association of raptor with Rab7a [1] | monosome formation (monosomes) | effect on tyrosine-mediated decrease of OGG1 levels (OGG1; combination with tyrosine) | effect on neurotoxicity induced by etoposide (ETO) (rat cortical neurons) | effect on neurotoxicity induced by mitochondrial inhibition (MPP+) (rat cortical neurons) | effect on neurotoxicity induced by oxidative stress (H2O2) (rat cortical neurons) | effect on NMDA-mediated toxicity (rat cortical neurons; cis-RSV) | effect on D-Tyr mediated neurotoxicity (rat cortical neurons) | effect on trans-RSV-mediated neurotoxicity (rat cortical neurons; combination with trans-RSV) | acetylation of H3 at lysine 56 (AcK56-H3) (AcK56-H3) | auto-PARylation of PARP1 (PARP1; [2]) | auto-PARylation of PARP1 (PARP1; low concentration of trans-RSV, converted to cis-RSV in solution) | global protein synthesis (puromycin incorporation) (global protein synthesis) | neurotoxicity (viability) (rat cortical neurons) | effect on NMDA mediated neurotoxicity (rat cortical neurons; [2]) | effect on NMDA mediated neurotoxicity (rat cortical neurons; low concentrations of trans-RSV (≤10 mM)) | OGG1 levels (OGG1; compound alone) | neurite degeneration (cortical neurons)
Oc1ccc(/C=C\c2cc(O)cc(O)c2)cc1 [cis-RSV, cis-resveratrol] | increases the association of raptor with Rab7a | stimulate the formation of monosomes | rescued | suppressed the neurotoxicity | suppressed the neurotoxicity | suppressed the neurotoxicity | protected against NMDA-mediated toxicity in a concentration-dependent manner | protected against D-Tyr mediated neurotoxicity | protected against the neurotoxicity induced by trans-RSV in a dose-dependent manner | – | – | – | – | – | – | – | – | –
Oc1ccc(/C=C/c2cc(O)cc(O)c2)cc1 [trans-RSV, trans-resveratrol] | – | – | – | did not protect against these neurotoxic agents | did not protect against these neurotoxic agents | did not protect against these neurotoxic agents | – | protected against D-Tyr mediated neurotoxicity but not trans-RSV | – | inhibited the acetylation of H3 at lysine 56 | inhibit the auto-PARylation of PARP1 | stimulates the auto-PARylation of PARP1 | inhibited global protein synthesis | by itself was neurotoxic | exacerbated the toxicity | evoked protective effects | – | –
N[C@@H](Cc1ccc(O)cc1)C(=O)O [tyrosine, L-tyrosine] | – | – | – | – | – | – | – | – | – | – | – | – | – | – | – | – | decreased 8-oxoguanine-DNA glycosylase (OGG1) levels | did not induce neurite degeneration
